According to patent publication US20230129438A1, “IMMUNOMODULATING IMINE-OXAZOLINE AZALIDES” (Zoetis Services LLC, priority 2020, published 2023):

Key:
[1] = system: M. haemolytica; experiment: In-vitro MIC model, M. haemolytica; assay type: cell-based
[2] = system: P. multocida; experiment: In-vitro MIC model, P. multocida; assay type: cell-based
[3] = system: S. aureus; experiment: In-vitro MIC model, S. aureus; conditions: S. aureus ATCC 29213
[4] = system: E. coli; experiment: In-vitro MIC model, E. coli
[5] = system: IL-1β; experiment: Bovine whole blood assay, IL-1β; assay type: cell-based; conditions: drug concentration giving overstimulation of IL-1β over LPS (cellular toxicity signal)
Method: (§1) (protected from light) for 30 minutes.

[6] = system: P. multocida 46572; experiment: In vivo mouse lung infection challenge model (murine efficacy model); conditions: for % Survival: 20 mg/kg subcutaneous, CD-1 mice, intranasal challenge, to Day 10, approximate (~%), harmonized relative to vehicle and M9
[7] = system: TNF-α; experiment: Bovine whole blood assay, LPS-induced TNF-α; assay type: cell-based; conditions: LPS 1 μg/mL
Method: as §1

[8] = system: IL-6; experiment: Bovine whole blood assay, LPS-induced IL-6; assay type: cell-based; conditions: LPS 1 μg/mL
[9] = M. haemolytica 46571, bovine efficacy challenge strain
[10] = P. multocida 46572, murine efficacy challenge strain

SMILES | MIC ([1]; M. haemolytica 12726) | MIC [1, 9] | MIC ([1]; M. haemolytica ATCC 33396) | MIC [2, 10] | MIC ([2]; P. multocida ATCC 43137) | MIC [3] | MIC ([4]; E. coli ATCC 25922) | MIC ([4]; E. coli W3110) | IL-Iβ OS of LPS [5] | % Survival [6] | IC50 [7] | clinical efficacy, in words ([6]; P. multocida infection in mice) | IC50 [8]
CCCNC[C@]1(O)[C@H](C)O[C@@H](O[C@H]2[C@H](C)[C@@H](O[C@@H]3O[C@H](C)C[C@H]4[C@H]3OC(=NCC(F)(F)F)N4C)[C@](C)(O)C[C@@H](C)CN[C@H](C)[C@@H](O)[C@](C)(O)[C@@H](CC)OC(=O)[C@@H]2C)C[C@@]1(C)OC (mixture of isomers) [Example A-4, (E/Z)-(2R,3S,4R,5R,8R,10R,11R,12S,13S,14R)-11-(((3aR,4S,6R,7aS)-1,6-dimethyl-2-((2,2,2-trifluoroethyl)imino)hexahydro-2H-pyrano[4,3-d]oxazol-4-yl)oxy)-2-ethyl-3,4,10-trihydroxy-13-(((2R,4R,5S,6S)-5-hydroxy-4-methoxy-4,6-dimethyl-5-((propylamino)methyl)tetrahydro-2H-pyran-2-yl)oxy)-3,5,8,10,12,14-hexamethyl-1-oxa-6-azacyclopentadecan-15-one] | >64 µg/mL | >64 µg/mL | >64 µg/mL | >64 µg/mL | >64 µg/mL | >64 µg/mL | >64 µg/mL | >64 µg/mL |  |  |  |  | 
CCCNC[C@]1(O)[C@H](C)O[C@@H](O[C@H]2[C@H](C)[C@@H](O[C@@H]3O[C@H](C)C[C@H]4[C@H]3OC(=Nc3ccc(OC)cc3)N4C)[C@](C)(O)C[C@@H](C)CN[C@H](C)[C@@H](O)[C@](C)(O)[C@@H](CC)OC(=O)[C@@H]2C)C[C@@]1(C)OC (mixture of isomers) [Example A-9, (E/Z)-(2R,3S,4R,5R,8R,10R,11R,12S,13S,14R)-2-ethyl-3,4,10-trihydroxy-13-(((2R,4R,5S,6S)-5-hydroxy-4-methoxy-4,6-dimethyl-5-((propylamino)methyl)tetrahydro-2H-pyran-2-yl)oxy)-11-(((3aR,4S,6R,7aS)-2-((4-methoxyphenyl)imino)-1,6-dimethylhexahydro-2H-pyrano[4,3-d]oxazol-4-yl)oxy)-3,5,8,10,12,14-hexamethyl-1-oxa-6-azacyclopentadecan-15-one] | >64 µg/mL | >64 µg/mL | >64 µg/mL | >64 µg/mL | >64 µg/mL | >64 µg/mL | >64 µg/mL | >64 µg/mL | 13 µM | 64% | < 5 µM |  | 
CC[C@H]1OC(=O)[C@H](C)[C@@H](O[C@H]2C[C@@](C)(OC)[C@](O)(CNCCOC)[C@H](C)O2)[C@H](C)[C@@H](O[C@@H]2O[C@H](C)C[C@H]3[C@H]2OC(=Nc2ccc(OC)cc2)N3C)[C@](C)(O)C[C@@H](C)CN[C@H](C)[C@@H](O)[C@]1(C)O (mixture of isomers) [Example A-13, (E/Z)-(2R,3S,4R,5R,8R,10R,11R,12S,13S,14R)-2-ethyl-3,4,10-trihydroxy-13-(((2R,4R,5S,6S)-5-hydroxy-4-methoxy-5-(((2-methoxyethyl)amino)methyl)-4,6-dimethyltetrahydro-2H-pyran-2-yl)oxy)-11-(((3aR,4S,6R,7aS)-2-((4-methoxyphenyl)imino)-1,6-dimethylhexahydro-2H-pyrano[4,3-d]oxazol-4-yl)oxy)-3,5,8,10,12,14-hexamethyl-1-oxa-6-azacyclopentadecan-15-one] | >64 µg/mL | >64 µg/mL | >64 µg/mL | >64 µg/mL | >64 µg/mL | >64 µg/mL | >64 µg/mL | >64 µg/mL | 32 µM | 37% | 5 µM | clinically efficacious | 
CCCNC[C@]1(O)[C@H](C)O[C@@H](O[C@H]2[C@H](C)[C@@H](O[C@@H]3O[C@H](C)C[C@H]4[C@H]3OC(=Nc3ccc(OC)nc3)N4C)[C@](C)(O)C[C@@H](C)CN[C@H](C)[C@@H](O)[C@](C)(O)[C@@H](CC)OC(=O)[C@@H]2C)C[C@@]1(C)OC (mixture of isomers) [Example A-17, (E/Z)-(2R,3S,4R,5R,8R,10R,11R,12S,13S,14R)-2-ethyl-3,4,10-trihydroxy-13-(((2R,4R,5S,6S)-5-hydroxy-4-methoxy-4,6-dimethyl-5-((propylamino)methyl)tetrahydro-2H-pyran-2-yl)oxy)-11-(((3aR,4S,6R,7aS)-2-((6-methoxypyridin-3-yl)imino)-1,6-dimethylhexahydro-2H-pyrano[4,3-d]oxazol-4-yl)oxy)-3,5,8,10,12,14-hexamethyl-1-oxa-6-azacyclopentadecan-15-one] | >64 µg/mL | >64 µg/mL | >64 µg/mL | >64 µg/mL | >64 µg/mL | >64 µg/mL | >64 µg/mL | >64 µg/mL |  | 37% |  |  | 
CC[C@H]1OC(=O)[C@H](C)[C@@H](O[C@H]2C[C@@](C)(OC)[C@](O)(CNCC3CC3)[C@H](C)O2)[C@H](C)[C@@H](O[C@@H]2O[C@H](C)C[C@H]3[C@H]2OC(=Nc2ccc(OC)nc2)N3C)[C@](C)(O)C[C@@H](C)CN[C@H](C)[C@@H](O)[C@]1(C)O (mixture of isomers) [Example A-25, (E/Z)-(2R,3S,4R,5R,8R,10R,11R,12S,13S,14R)-13-(((2R,4R,5S,6S)-5-(((cyclopropylmethyl)amino)methyl)-5-hydroxy-4-methoxy-4,6-dimethyltetrahydro-2H-pyran-2-yl)oxy)-2-ethyl-3,4,10-trihydroxy-11-(((3aR,4S,6R,7aS)-2-((6-methoxypyridin-3-yl)imino)-1,6-dimethylhexahydro-2H-pyrano[4,3-d]oxazol-4-yl)oxy)-3,5,8,10,12,14-hexamethyl-1-oxa-6-azacyclopentadecan-15-one] |  |  |  |  |  |  |  |  | 16 µM | 26% | 2.5 µM |  | 4 µM
CCCNC[C@]1(O)[C@H](C)O[C@@H](O[C@H]2[C@H](C)[C@@H](O[C@@H]3O[C@H](C)C[C@H]4[C@H]3OC(=Nc3ccccc3)N4C)[C@](C)(O)C[C@@H](C)CN(C)[C@H](C)[C@@H](O)[C@](C)(O)[C@@H](CC)OC(=O)[C@@H]2C)C[C@@]1(C)OC (mixture of isomers) [Example A-31, (E/Z)-(2R,3S,4R,5R,8R,10R,11R,12S,13S,14R)-11-(((3aR,4S,6R,7aS)-1,6-dimethyl-2-(phenylimino)hexahydro-2H-pyrano[4,3-d]oxazol-4-yl)oxy)-2-ethyl-3,4,10-trihydroxy-13-(((2R,4R,5S,6S)-5-hydroxy-4-methoxy-4,6-dimethyl-5-((propylamino)methyl)tetrahydro-2H-pyran-2-yl)oxy)-3,5,6,8,10,12,14-heptamethyl-1-oxa-6-azacyclopentadecan-15-one] |  |  |  |  |  |  |  |  | >250 µM |  | 7 µM |  | 10 µM
CCCNC[C@]1(O)[C@H](C)O[C@@H](O[C@H]2[C@H](C)[C@@H](O[C@@H]3O[C@H](C)C[C@H]4[C@H]3OC(=Nc3ccccc3)N4CC(C)C)[C@](C)(O)C[C@@H](C)CN[C@H](C)[C@@H](O)[C@](C)(O)[C@@H](CC)OC(=O)[C@@H]2C)C[C@@]1(C)OC (mixture of isomers) [Example A-32, (E/Z)-(2R,3S,4R,5R,8R,10R,11R,12S,13S,14R)-2-ethyl-3,4,10-trihydroxy-13-(((2R,4R,5S,6S)-5-hydroxy-4-methoxy-4,6-dimethyl-5-((propylamino)methyl)tetrahydro-2H-pyran-2-yl)oxy)-11-(((3aR,4S,6R,7aS)-1-isobutyl-6-methyl-2-(phenylimino)hexahydro-2H-pyrano[4,3-d]oxazol-4-yl)oxy)-3,5,8,10,12,14-hexamethyl-1-oxa-6-azacyclopentadecan-15-one] |  |  |  |  |  |  |  |  | 2 µM |  | 5 µM |  | 2 µM
CC[C@H]1OC(=O)[C@H](C)[C@@H](O[C@H]2C[C@@](C)(OC)[C@](O)(CN3CCOCC3)[C@H](C)O2)[C@H](C)[C@@H](O[C@@H]2O[C@H](C)C[C@H]3[C@H]2OC(=Nc2ccccc2)N3C)[C@](C)(O)C[C@@H](C)CN[C@H](C)[C@@H](O)[C@]1(C)O (mixture of isomers) [Example B-3, (E/Z)-(2R,3S,4R,5R,8R,10R,11R,12S,13S,14R)-11-(((3aR,4S,6R,7aS)-1,6-dimethyl-2-(phenylimino)hexahydro-2H-pyrano[4,3-d]oxazol-4-yl)oxy)-2-ethyl-3,4,10-trihydroxy-13-(((2R,4R,5S,6S)-5-hydroxy-4-methoxy-4,6-dimethyl-5-(morpholinomethyl)tetrahydro-2H-pyran-2-yl)oxy)-3,5,8,10,12,14-hexamethyl-1-oxa-6-azacyclopentadecan-15-one] | >64 µg/mL | >64 µg/mL | >64 µg/mL | >64 µg/mL | >64 µg/mL | >64 µg/mL | >64 µg/mL | >64 µg/mL |  |  |  |  | 
